Test results reported in PMC8413479 (Journal of molecular biology, 2021).

B1: HD5: enteric human α-defensin HD5 (peptide, UniProt Q01523 20-94, looked up)
Defensin alpha 5: ESLQERADEATTQKQSGEDNQDLAISFAGNGLSALRTSGSQARATCYCRTGRCATRESLSGVCEISGRLYRLCCR
modifications: Defensin-5

How the values were obtained:
[1] = tested on: SARS-CoV-2 (USA-WA1/2020), Vero E6 cells; format: cell-based
[2] = tested on: SARS-CoV-2 Spike/ACE2; Spike-expressing U2OS cells fusing with ACE2-producing Calu-3 cells; format: cell-based, human cells; SARS-CoV-2 Spike
SARS-CoV-2 Spike protein [3] = experiment: Differential scanning fluorimetry; format: binding; conditions: 1 μM Spike, PBS, Sypro Orange
SARS-CoV-2 Spike protein [4] = format: biochemical
[5] = tested on: SARS-CoV-2 (USA-WA1/2020), Vero E6 cells
[6] = tested on: SARS-CoV-2 Spike-pseudotyped viruses (HIV-based), H1299 cells; format: cell-based, SARS-CoV-2 Spike (HIV-based pseudovirus); human H1299 cells
[7] = tested on: SARS-CoV-2 Spike pseudovirus; conditions: cited from earlier work
[8] = tested on: human angiotensin-converting enzyme 2 (ACE2 receptor); conditions: on enterocytes; cited from earlier work
[9] = micromolar concentrations of defensin

Molecule | SARS-CoV-2 infectivity [1] | inhibition of syncytia formation [2] | Spike destabilization relative to HNP1 (SARS-CoV-2 Spike protein [3]) | destabilization of Spike protein (SARS-CoV-2 Spike protein [3]; [9]) | melting peak of Spike (SARS-CoV-2 Spike protein [3]; [9]) | aggregation and precipitation of Spike (SARS-CoV-2 Spike protein [4]) | inhibition of SARS-CoV-2 infection [5] | IC50 ([5]; USA-WA1/2020), Vero E6 cells, 24 h) | effect of serum on inhibition of pseudovirus infection [6] | inhibition of infection after pre-incubation of pseudovirus [6] | pseudovirus infection efficiency after pre-treatment of cells [6] | SARS-CoV-2 Spike pseudovirus infection [7] | binding to human ACE2 [8]
CC[C@H](C)[C@@H]1NC(=O)CNC(=O)[C@H](CCCCN)NC(=O)CNC(=O)[C@@H]2CSSC[C@H](NC1=O)C(=O)N[C@@H](CCCNC(=N)N)C(=O)N[C@H]1CSSC[C@H](NC(=O)[C@H](CCCNC(=N)N)NC(=O)[C@@H]3CSSC[C@H](NC(=O)[C@H]([C@@H](C)CC)NC1=O)C(=O)NCC(=O)N[C@@H](CCCNC(=N)N)C(=O)NCC(=O)N[C@@H]([C@@H](C)CC)C(=O)N3)C(=O)N[C@@H]([C@@H](C)CC)C(=O)N2 [RC-101] | strongly inhibited | strongly inhibited syncytia formation | less prominent than for HNP1 | destabilized | loss of the melting peak at its normal position | partial aggregation and precipitation | inhibited SARS-CoV-2 infection | 29 ± 7.6 µM | serum had a negative influence on the inhibitory ability | significantly inhibited the infection | did not affect the pseudovirus infection efficiency |  | 
B1 |  |  |  |  |  |  |  |  |  |  |  | inhibition of SARS-CoV-2 Spike pseudovirus infection | binds to human angiotensin-converting enzyme 2
